Experimental data as given in article PMC6094399, “New tools for carbohydrate sulfation analysis: heparan sulfate 2-O-sulfotransferase (HS2ST) is a target for small-molecule protein kinase inhibitors” (Biochemical Journal, 2018).
Where “and” joins values, the source holds several entries; their conditions need not be identical. Identical values can stand only once. Entries after “also recorded” stand apart in the source; their conditions may differ. Like-named read-outs stand apart in the source and are kept apart here.

Tests used:
[1] = target: T1, HS2ST (Gallus gallus, UniProt Q76KB1); test: Microfluidic mobility shift sulfation assay with fluorescent hexasaccharide substrate; assay type: biochemical, Chicken; conditions: for HS2ST inhibition: concentrations as high as 400 μM (Supplementary Figure S9B); for mode of HS2ST inhibition: increasing concentration of PAPS, 10 μM PAP, 0.5 mM CoA or 20 μM rottlerin; for HS2ST inhibition (dose-response): 1 μM PAPS, 15 min at 20°C (Figure 4C)
T1 construct: made in house; host or cells: Escherichia coli Rosetta-gami (DE3), modified pMAL-c2x plasmid
T1 sequence (Q76KB1 69-356): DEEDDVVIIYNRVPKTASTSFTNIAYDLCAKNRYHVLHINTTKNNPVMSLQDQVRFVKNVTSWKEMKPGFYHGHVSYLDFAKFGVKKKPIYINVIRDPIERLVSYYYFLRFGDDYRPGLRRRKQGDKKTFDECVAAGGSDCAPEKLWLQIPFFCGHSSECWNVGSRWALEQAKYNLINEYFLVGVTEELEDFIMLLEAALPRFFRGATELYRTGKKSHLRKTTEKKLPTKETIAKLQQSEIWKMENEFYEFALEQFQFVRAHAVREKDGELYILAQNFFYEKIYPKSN
Excerpt: (§1) N-sulfated, fluorescein-tagged hexasaccharide glycan substrate (GlcNS–GlcA–GlcNS–IdoA–GlcNS–GlcA-fluorescein, where S = sulfation) containing either L-IdoA or D-GlcA residues at the third residue from the reducing end (to which a linker and the fluorophore were conjugated) was both purchased from GLYCAN therapeutics (www.glycantherapeutics.com). […] Chemically modified heparins were generated through a published procedure, whereas oligosaccharides from Iduron were generated enzymatically. Non-radioactive microfluidic mobility shift carbohydrate sulfation assays were optimised in solution with a 12-sipper chip coated with CR8 reagent and a PerkinElmer EZ Reader II system using EDTA-based separation buffer and real-time kinetic evaluation of substrate sulfation. Pressure and voltage settings were adjusted manually to afford optimal separation of the sulfated product and non-sulfated hexasaccharide substrate, with a sample (sip) volume of 20 nl, and total assay times appropriate for the experiment. […] The degree of oligosaccharide sulfation was directly calculated using the EZ Reader software by measuring the sulfo oligosaccharide : oligosaccharide ratio at each time-point. The activity of HS2ST enzymes in the presence of biochemicals and small-molecule inhibitors was quantified in ‘kinetic mode’ by monitoring the amount of sulfated glycan generated over the assay time, relative to control assay with no additional inhibitor molecule (DMSO control). […] Km and IC50 values were determined by nonlinear regression analysis with GraphPad Prism software.
The PKIS chemical library (Supplementary Figure S6, designated as SB, GSK or GW compound sets) comprises 367 largely ATP-competitive kinase inhibitors, covering 31 chemotypes originally designed to inhibit 24 distinct protein kinase targets. Compounds were stored frozen as a 10 mM stock in DMSO. The library is characterised as highly drug-like (∼70% with molecular mass <500 Da and clogP values <5). […] For inhibition assays, competition assays or individual IC50 value determination, a compound range was prepared by serial dilution in DMSO and added directly into the assay to the appropriate final concentration. All control experiments contained 4% (v/v) DMSO, which had essentially no effect on HS2ST activity. Individual chemicals and glycan derivatives were prepared and evaluated using NMR, HPLC, DSF or microfluidics-based assay protocols, as described above.

[2] = target: T1, HS2ST; test: DSF thermal shift/stability assay of MBP-HS2ST; assay type: binding, Chicken; conditions: 5 μM MBP-HS2ST; for thermal stabilisation of HS2ST (DSF): result in words
[3] = tested on: catalytic subunit of cAMP-dependent protein kinase (PKAc); test: DSF thermal shift of recombinant PKAc; assay type: binding; conditions: 5 μM PKAc
[4] = tested on: hormone iodotyrosine sulfotransferases; conditions: read-out: Km for PAPS; human hormone iodotyrosine sulfotransferases; cited from earlier work
[5] = tested on: HS2ST; conditions: read-out: Km for PAPS; HS2ST using desulfated heparin as a substrate; cited from earlier work
[6] = tested on: MBP; test: DSF thermal shift control with MBP; assay type: binding; conditions: 0.5 mM PAPS, 10 μM heparin or 5 mM maltose; result in words
[7] = tested on: tyrosyl sulfotransferase; conditions: read-out: Km for PAPS; tissue-purified tyrosyl sulfotransferase; cited from earlier work
[8] = tested on: GlcNAc-6-sulfotransferase NodH; conditions: read-out: Km for PAPS; PAPS-dependent GlcNAc-6-sulfotransferase NodH; cited from earlier work
[9] = substrate: Nc1ncnc2c1ncn2C1OC(COP(=O)(O)OS(=O)(=O)O)C(OP(=O)(O)O)C1O; test: Microfluidic mobility shift sulfation assay with fluorescent hexasaccharide substrate; assay type: biochemical, Chicken; conditions: other: 20 nM HS2ST, fluorescein-labelled IdoA hexasaccharide substrate; pH 7.4
Excerpt: as §1, with “sulfation.” for “sulfation. Pressure and voltage settings were adjusted manually to afford optimal separation of the sulfated product and non-sulfated hexasaccharide substrate, with a sample (sip) volume of 20 nl, and total assay times appropriate for the experiment.”, “software. […]” for “software.”

[10] = nucleotides, 20 nM HS2ST, 10 μM PAPS, absence of MgCl2, 15 min, read-out: IC50
[11] = 20 nM HS2ST, 10 μM PAPS (Figure 3D), read-out: IC50
[12] = positive controls of the PKIS enzyme re-screen (Figure 4B, Supplementary Figures 7 and 8), read-out: IC50

Molecule: CCCS(=O)(=O)Nc1ccc(F)c(C(=O)c2c[nH]c3ncc(-c4ccc(Cl)cc4)cc23)c1F [vemurafenib]
- HS2ST inhibition ([1]; result in words): unable to inhibit HS2ST

Molecule: Nc1nc2c(ncn2[C@@H]2O[C@H](COP(=O)(O)OP(=O)(O)OP(=O)(O)O)[C@@H](O)[C@H]2O)c(=O)[nH]1 [GTP, guanosine 5′-triphosphate]
- thermal stabilisation of HS2ST (DSF) [2]: effective at protecting HS2ST from thermal denaturation

Molecule: CC(C)(COP(=O)(O)OP(=O)(O)OC[C@H]1O[C@@H](n2cnc3c(N)ncnc32)[C@H](O)[C@@H]1OP(=O)(O)O)[C@@H](O)C(=O)NCCC(=O)NCCS [CoA, coenzyme A]
- mode of HS2ST inhibition [1]: PAPS-competitive mode of inhibition
- IC50 [1, 10]: 65000 nM
- thermal stabilisation of HS2ST (DSF) [2]: clearly induced thermal stabilisation

Molecule: O=C(O)C1=CC(=C(c2ccc(O)c(C(=O)O)c2)c2ccc(O)c(C(=O)O)c2)C=CC1=O [aurintricarboxylate, aurintricarboxylic acid]
- IC50 [1, 11]: 123 ± 7 nM
- IC50 [1, 12]: ~90 nM

Molecule: O=C1Nc2ccc(I)cc2C1=Cc1cc(Br)c(O)c(Br)c1 [GW305074]
- HS2ST inhibition (dose-response) ([1]; 20 nM HS2ST, result in words): mid-micromolar HS2ST inhibitor

Molecule: [Mg+2] [Mg^2+]
- HS2ST enzyme activity ([1]; high (>1 mM) concentrations of Mg2+ ions, relative to buffer controls, result in words): concentration-dependent increases
- ΔTm ([2]; DSF): ~3 °C

Molecule: CN[C@@H]1C[C@H]2O[C@@](C)([C@@H]1OC)n1c3ccccc3c3c4c(c5c6ccccc6n2c5c31)C(=O)NC4 [staurosporine]
- thermal stabilisation of HS2ST (DSF) [2]: neither the pan-kinase inhibitor staurosporine nor several FDA-approved tyrosine kinase inhibitors caused thermal stabilisation

Molecule: Nc1ncnc2c1ncn2[C@@H]1O[C@H](COP(=O)(O)OP(=O)(O)OP(=O)(O)O)[C@@H](O)[C@H]1O [ATP, adenosine 5′-triphosphate]
- IC50 [1, 10]: 466000 nM

Molecule: CC(=O)c1c(O)c(C)c(O)c(Cc2c(O)c3c(c(C(=O)/C=C/c4ccccc4)c2O)OC(C)(C)C=C3)c1O [rottlerin]
- IC50 ([1]; IC50, 20 nM HS2ST, 10 μM PAPS (Figure 3D)): 6400 nM
- IC50 ([1]; IC50, positive control of the PKIS enzyme re-screen (Figure 4B, Supplementary Figures 7 and 8)): ~8000 nM
- mode of HS2ST inhibition [1]: competitive mode of HS2ST inhibition

Molecule: CC(C)(C)c1nc(-c2cccc(NS(=O)(=O)c3c(F)cccc3F)c2F)c(-c2ccnc(N)n2)s1 [dabrafenib]
- HS2ST inhibition ([1]; result in words): unable to inhibit HS2ST

Molecule: CC(C)(COP(=O)(O)OP(=O)(O)OC[C@H]1O[C@@H](n2cnc3c(N)ncnc32)[C@H](O)[C@@H]1O)[C@@H](O)C(=O)NCCC(=O)NCCS [dephospho-CoA, 3′-dephosphoCoA]
- thermal stabilisation of HS2ST (DSF) [2]: abolished this effect

Molecule: Mg-ATP
- ΔTm ([3]; 0.5 mM ATP and 10 mM MgCl2): > 4 °C

Molecule: Cc1ccc(C(=O)Nc2ccc(S(=O)(=O)O)c3cc(S(=O)(=O)O)cc(S(=O)(=O)O)c23)cc1NC(=O)c1cccc(NC(=O)Nc2cccc(C(=O)Nc3cc(C(=O)Nc4ccc(S(=O)(=O)O)c5cc(S(=O)(=O)O)cc(S(=O)(=O)O)c45)ccc3C)c2)c1 [suramin]
- IC50 [1, 11]: 40 ± 1 nM
- IC50 [1, 12]: ~20 nM

Molecule: COC(=O)c1ccc2c(c1)C(=Cc1cc(Br)c(O)c(Br)c1)C(=O)N2 [GW405841X]
- HS2ST inhibition (dose-response) ([1]; 20 nM HS2ST, result in words): did not inhibit HS2ST at any concentration tested

Molecule: Nc1ncnc2c1ncn2C1OC(COP(=O)(O)OS(=O)(=O)O)C(OP(=O)(O)O)C1O (stereo not drawn) [PAPS, adenosine 3′-phosphate 5′-phosphosulfate]
- Km [4]: 1.5 µM
- thermal stabilisation of HS2ST (DSF) [2]: positively shifted (stabilised); also recorded: dose-dependent stabilisation
- Km [5]: 18.5 µM
- thermal stabilisation of MBP (DSF) [6]: neither PAPS nor heparin induced stabilisation
- Km [7]: 10 µM
- Km [8]: ~4.3 µM
- thermal stabilisation of PKAc (DSF) ([3]; 0.5 mM PAPS, result in words): did not stabilise

Molecule: CC(=O)SCCNC(=O)CCNC(=O)[C@H](O)C(C)(C)COP(=O)(O)OP(=O)(O)OC[C@H]1O[C@@H](n2cnc3c(N)ncnc32)[C@H](O)[C@@H]1OP(=O)(O)O [acetyl CoA]
- thermal stabilisation of HS2ST (DSF) [2]: clearly induced thermal stabilisation

Molecule: Nc1ncnc2c1ncn2[C@@H]1O[C@H](COP(=O)(O)O)[C@@H](O)[C@H]1O [AMP, adenosine 5′-monophosphate]
- thermal stabilisation of HS2ST (DSF) [2]: not

Molecule: Nc1ncnc2c1ncn2C1OC(COP(=O)(O)O)C(OP(=O)(O)O)C1O (stereo not drawn) [PAP, adenosine 3′–5′-diphosphate]
- mode of HS2ST inhibition [1]: PAPS-competitive mode of inhibition
- IC50 [1, 10]: ~2000 nM
- thermal stabilisation of HS2ST (DSF) [2]: did not abrogate HS2ST binding

Molecule: Nc1ncnc2c1ncn2[C@@H]1O[C@H](COP(=O)(O)OP(=O)(O)O)[C@@H](O)[C@H]1O [ADP, adenosine 5′-diphosphate]
- thermal stabilisation of HS2ST (DSF) [2]: effective at protecting HS2ST from thermal denaturation

Molecule: OC[C@H]1O[C@H](O[C@H]2[C@H](O)[C@@H](O)C(O)O[C@@H]2CO)[C@H](O)[C@@H](O)[C@@H]1O (mixture of isomers) [maltose]
- thermal stabilisation of MBP (DSF) [6]: characteristic stabilisation profile

B1: HS2ST (Gallus gallus) (protein)
chain: T1 sequence (Q76KB1 69-356)
notes: made in house; host or cells: Escherichia coli Rosetta-gami (DE3), modified pMAL-c2x plasmid
- Km [9]: 1.03 ± 0.2 µM and 1 µM and 1.0 µM
